Reference: patent US11396517B1, “Exo-aza spiro inhibitors of menin-MLL interaction” (Janssen Pharmaceutica NV, priority 2017, dated 2022)

How the values were obtained:
MOLM14 [1] = assay: Proliferation assay A (spheroid assay) MOLM14; assay type: cell-based, human; conditions: Homo sapiens, MOLM-14, 192 h, MOLM14 cells, 8 d, AUC of confluence against time, absolute IC50; read-out: (3a) Spheroid assay MOLM14 (IC50(μM)) Assay A
Experimental: (§1) 3a) Proliferation Assay A
(§2) The anti-proliferative effect of menin/MLL protein/protein interaction inhibitor test compounds was assessed in human leukemia cell lines. The cell lines MV-4-11 and MOLM14 harbor MILL translocations and express the MILL fusion proteins MLL-AF4 and MLL-AF9, respectively, as well as the wildtype protein from the second allele. […] K562 was used as a control cell line containing two MLL wildtype alleles in order to exclude compounds that display general cytotoxic effects.
(§3) MV-4-11 and MOLM14 were cultured in RPMI-1640 (Sigma Aldrich) supplemented with 10% fetal bovine serum (HyClone), 2 mM L-glutamine (Sigma Aldrich) and 50 μg/ml gentamycin (Gibco). K562 were propagated in RPMI-1640 (Sigma Aldrich) supplemented with 20% fetal bovine serum (HyClone), 2 mM L-glutamine (Sigma Aldrich) and 50 μg/ml gentamycin (Gibco).
(§4) In order to assess the anti-proliferative effects, 1,500 MV-4-11, 300 MOLM14 or 750 K562 cells were seeded in 200 μl media per well in 96-well round bottom, ultra-low attachment plates (Costar, catalogue number 7007). Cell seeding numbers were chosen based on growth curves to ensure linear growth throughout the experiment. Test compounds were added at different concentrations and the DMSO content was normalized to 0.3%. Cells were incubated for 8 d at 37° C. and 5% CO2. Spheroid like growth was monitored in real-time by live-cell imaging (IncuCyteZOOM, Essenbio, 4× objective) acquiring one image every four hours for 8 d. Confluence (%) as a measure of spheroid size was determined using an integrated analysis tool.
(§5) In order to determine the cumulative effect of the test compounds over time, the area under the curve (AUC) in a plot of confluence against time was calculated. Confluence at the beginning of the experiment (t=0) was used as baseline for the AUC calculation.
(§6) Absolute IC50 values were calculated according to the following procedure: % Control=(AUC sample/AUC control)*100
(§7) AUC control mean AUC of control values (cells without compound/DMSO as vehicle control)
(§8) A non-linear curve fit was applied using the least squares (ordinary) fit method to the plot of % control versus compound concentration. Based on this, the absolute IC50 value (half maximal inhibitory concentration of the test compound causing an anti-proliferative effect of 50% relative to the vehicle control) was calculated.

menin = target: T1, menin (Homo sapiens, UniProt O00255, T541A); assay: Menin/MLL homogenous time-resolved fluorescence (HTRF) assay; assay type: binding; conditions: location 2; read-out: (2) location 2 Menin HTRF assay (IC50 (nM))
T1 construct: Menin (a.a. 1-610-6×his tag)
T1 sequence (O00255 with tags, fused parts or gaps T541A): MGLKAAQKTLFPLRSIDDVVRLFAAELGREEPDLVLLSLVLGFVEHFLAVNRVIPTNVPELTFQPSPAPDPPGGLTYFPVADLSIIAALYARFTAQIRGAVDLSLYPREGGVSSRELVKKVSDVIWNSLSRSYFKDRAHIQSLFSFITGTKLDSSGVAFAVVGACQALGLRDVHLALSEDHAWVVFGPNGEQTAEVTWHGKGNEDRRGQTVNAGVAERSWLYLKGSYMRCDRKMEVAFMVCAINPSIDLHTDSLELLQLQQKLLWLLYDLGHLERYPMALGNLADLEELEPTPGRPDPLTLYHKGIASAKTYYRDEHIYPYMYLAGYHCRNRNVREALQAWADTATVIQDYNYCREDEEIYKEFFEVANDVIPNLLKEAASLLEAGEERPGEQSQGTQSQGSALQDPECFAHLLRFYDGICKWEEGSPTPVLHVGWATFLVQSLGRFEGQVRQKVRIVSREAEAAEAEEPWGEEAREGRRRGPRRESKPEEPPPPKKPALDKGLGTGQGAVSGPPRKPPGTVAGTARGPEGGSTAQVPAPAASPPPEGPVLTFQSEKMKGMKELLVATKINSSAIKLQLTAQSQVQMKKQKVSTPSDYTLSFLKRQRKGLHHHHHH
Outline: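 Terbium-labeled menin (aa 1-610, His-tagged; […]) preincubated 5 min with compound, then 75 nM FITC-MBM1 peptide for 15 min, ambient, Tris pH 7.5, 0.5% DMSO. HTRF 520/490 ratio; 11-point 3-fold titration; IC50 from % inhibition fit.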

MV-4-11 [2] = assay: Proliferation assay A (spheroid assay) MV-4-11; assay type: cell-based, human; conditions: MV-4-11 cells, 8 d, AUC of confluence against time, absolute IC50, read-out: (3a) Spheroid assay MV-4-11 (IC50(μM)) Assay A
Experimental: as §1, §2, §3, §4, §5, §6, §7, §8

MV-4-11 [3] = assay: Proliferation assay B (spheroid assay) MV-4-11; assay type: cell-based, human; conditions: Homo sapiens, MV4-11, 192 h, MV-4-11 cells, confluence at day 8, absolute IC50; read-out: (3b) Spheroid assay MV-4--11 (IC50(μM)) Assay B
Experimental: 3b) Proliferation Assay B
as §2, §3
as §4, with “MOLM14 cells” for “MOLM14”, “measured” for “monitored”, “images at day 8.” for “one image every four hours for 8 d.”
In order to determine the effect of the test compounds over time, the confluence in each well as a measure of spheroid size, was calculated. Confluence […] at the beginning of the experiment (t=0) was used as baseline for the calculation.
Absolute IC50 values were calculated as percent change in confluence as follows:
LC=Low Control: cells treated with 1 μM of the cytotoxic agent staurosporin
HC=High Control: Mean confluence (%) (DMSO treated cells) % Effect=100−(100*(Sample−LC)/(HC−LC))
To determine the IC50 a curve is fitted to the plot of % Effect vs Log 10 compound concentration using a sigmoidal fit with a variable slope and fixing the maximum to 100% and the minimum to 0%.

MOLM14 [4] = assay: Proliferation assay B (spheroid assay) MOLM14; assay type: cell-based, human; conditions: Homo sapiens, MOLM-14, 192 h, MOLM14 cells, confluence at day 8, absolute IC50; read-out: (3b) Spheroid assay MOLM14 (IC50(μM)) Assay B
Outline: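 Leukemia cells grown as spheroids in ultra-low-attachment round-bottom wells with compound at 0.3% DMSO for 8 d at 37 °C. Confluence imaged at day 8 as spheroid size, normalized between DMSO and 1 μM staurosporine controls; absolute IC50 from sigmoidal fit with bounds fixed at 0 and 100%.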

## N#CCc1ccc(NC2CC3(CCN(c4ncnc5sc(CC(F)(F)F)cc45)C3)C2)cc1F (mixture of isomers) [Compound 168]
MOLM14 [1]
  IC50: 2.52 µM
menin
  IC50: 20.8 nM
MV-4-11 [2]; Homo sapiens, MV4-11, 192 h
  IC50: 1.65 µM

## FC(F)(F)Cc1cc2c(N3CCC4(CC(Nc5ccc6cc(C(F)(F)F)[nH]c6c5)C4)C3)ncnc2s1 (mixture of isomers) [Compound 314]
MOLM14 [1]
  IC50: > 3.75 µM
menin
  IC50: 27.1 nM
MV-4-11 [2]; Homo sapiens, MV4-11, 192 h
  IC50: 3.83 µM

## O=c1[nH]c2ccc(NC3CC4(CCN(c5ncnc6sc(CC(F)(F)F)cc56)C4)C3)cc2o1 (mixture of isomers) [Compound 322]
MV-4-11 [3]
  IC50: > 3.75 µM
menin
  IC50: 51.4 nM
MV-4-11 [2]; Homo sapiens, MV4-11, 192 h
  IC50: > 3.75 µM
MOLM14 [4]
  IC50: > 3.75 µM

## CNc1nc(N2CCC3(CC(Nc4ccc(CC#N)cc4)C3)C2)c2cc(CC(F)(F)F)sc2n1 (mixture of isomers) [Compound 390]
MOLM14 [1]
  IC50: > 3.75 µM
menin
  IC50: 14.6 nM
MV-4-11 [2]; Homo sapiens, MV4-11, 192 h
  IC50: 2.84 µM

## N#CCc1ccc(NC2CCC3(C2)CN(c2ncnc4sc(CC(F)(F)F)cc24)C3)cc1 (racemic) [Compound 278]
MOLM14 [1]
  IC50: > 3.75 µM
menin
  IC50: 22.8 nM
MV-4-11 [2]; Homo sapiens, MV4-11, 192 h
  IC50: > 3.75 µM

## N#CCc1ccc(NC2CCC3(C2)CN(c2nc(N)nc4sc(CC(F)(F)F)cc24)C3)cc1 (racemic) [Compound 387]
MV-4-11 [3]
  IC50: > 3.75 µM
menin
  IC50: 94.2 nM
MV-4-11 [2]; Homo sapiens, MV4-11, 192 h
  IC50: > 3.75 µM
MOLM14 [4]
  IC50: > 3.75 µM

## CNC(=O)c1ccc(NC2CC3(CCN(c4ncnc5sc(CC(F)(F)F)cc45)C3)C2)cc1 (single isomer, unassigned) [Compound 94]
MV-4-11 [3]
  IC50: 0.06 µM
menin
  IC50: 3.6 nM
MV-4-11 [2]
  IC50: 0.04 µM
MOLM14 [4]
  IC50: 0.44 µM

## N#CCc1ccc(N[C@@H]2CC[C@@]3(CCN(c4ncnc5sc(CC(F)(F)F)cc45)C3)C2)cc1 (stereo in doubt) [Compound 144]
MV-4-11 [3]
  IC50: 1.4 µM
menin
  IC50: 9.3 nM
MOLM14 [4]
  IC50: 2.77 µM

## N#CCc1ccc(N[C@H]2CC[C@@]3(CCN(c4ncnc5sc(CC(F)(F)F)cc45)C3)C2)cc1 (stereo in doubt) [Compound 145]
MV-4-11 [3]
  IC50: 3.55 µM
menin
  IC50: 22.6 nM
MOLM14 [4]
  IC50: > 3.75 µM

## N#CCc1ccc(N[C@H]2CC[C@]3(CCN(c4ncnc5sc(CC(F)(F)F)cc45)C3)C2)cc1 (stereo in doubt) [Compound 147]
MV-4-11 [3]
  IC50: 2.07 µM
menin
  IC50: 45.3 nM
MOLM14 [4]
  IC50: 2.9 µM

## NC(=O)Cn1c(=O)[nH]c2cc(CNC3CCC4(C3)CN(c3ncnc5sc(CC(F)(F)F)cc35)C4)ccc21 (stereo not drawn) [Compound 53, 2-(2-oxo-5-(((2-(6-(2,2,2-trifluoroethyl)thieno[2,3-d]-pyrimidin-4-yl)-2-azaspiro[3.4]octan-6-yl)amino)methyl)-2,3-dihydro-1H-benzo[d]-imidazol-1-yl)acetamide]
MV-4-11 [3]
  IC50: > 3.75 µM
menin
  IC50: 8.7 nM
MOLM14 [4]
  IC50: > 3.75 µM

## CNC(=O)c1ccc(NC2CC3(CCN(c4ncnc5sc(CC(F)(F)F)cc45)C3)C2)nc1 (stereo not drawn) [Compound 70]
MV-4-11 [3]
  IC50: 0.3 µM
menin
  IC50: 2.7 nM
MOLM14 [4]
  IC50: 1.08 µM
